Reference: patent USRE39682E1, “Farnesyl derivatives and pharmaceutical compositions containing them” (Ramot at Tel Aviv University Ltd., priority 1993, dated 2007)

Experiments:
[1] = test system: C57 black mice; settings: mouse, in vivo
Protocol: (§5) Toxicity tests in intact animals were performed with C57 black and with bulb-C mice.
(§6) Four groups, each comprising 9 mice, were used. Animals of group one received 100 μl s.c. injections of 150 μM FTS in salient solution containing 1% DMSO (0.21 mg drug/kg body weight). The drug was injected every 3 days for 2 weeks. Group two, which served as controls, received the solvent/saline solution for the same period of time.

[2] = test system: Erb-B2 transformed 3T3 cells (RB-22); assay: Growth of Erb-B2 transformed cells; type: cell-based; settings: 25 μM
Text: (§1) The cell lines employed were rat1, -EJ, which are rat1 cells stably expressing Val- 12 activated human Ha-ras gene (Land H. et al., Nature, 304, 596-602, (1983)); V-raf-3T3, which are 3T3 cells stably expressing the V-raf gene (Xu, N., et al., Proc. Natl. Acad. Sci., 90, 6741-6745); RB-22, which are 3T3 cells stably expressing the rat Erb-B2 gene (Peles, et al., EMBO J., 10, 2077-2086 (1991)) CO6O cells (SV40-CHO), which are CHE cells stably expressing the SV-40 T-antigen gene (Lavi, Proc. Natl. Acad. Sci., 78, 6144-6148 (1981)); human endometrial carcinoma cell line HEC1A, which are cells that express activated K-ras (Enomoto T., Cancer Res., 50, 6139-6145; mouse B16F10 melanoma cells, rat pheochromocytoma PC12 cells, […] cells CHE and COS cells.
(§2) HEC1A, V-raf-3T3 and SV40-CHE cells were grown in Dulbecco's modified Eagle medium (DMEM) containing 10% fetal calf serum (FCS), 4 mM L-glutamine, 10 μg/ml streptomycin and 10 U/ml penicillin. Rat1 and -EJ cells were grown in the same medium except that it was supplemented with 12.5 U/ml nyostatin. RB-22 cells were grown in modified DMEM (1 mM sodium pyruvate, 20 mM sodium bicarbonate)/10% FCS containing 4 mM L-glutamine, […] streptomycin, 10 U/ml penicillin. […]
(§3) The potent PPMTase inhibitor FTS was used to examine selectivity of the drugs towards ras-dependent growth-signaling pathways. […] Cells were counted on day 5 of the experiment.

[3] = test system: C57 black mice; assay: In vivo toxicity, repeated s.c. or i.p. injection; settings: 0.21 mg/kg s.c. or i.p. every 3 days for 2 weeks
Protocol: as §5, §6

[4] = test system: Ha-ras-transformed rat1 cells; assay: Transformed phenotype (multi-layered clumps) of ras-transformed rat1 cells; type: cell-based, rat; settings: 5 days
Text: The two compounds had no effect on the morphology of the non-transformed cells. (FIG. 9B and 9C).

[5] = test system: HEC1A, rat1 and ras-transformed rat1 cells; assay: In vitro toxicity: MTT and trypan blue staining; type: cell-based; settings: human (HEC1A), rat (rat1, ras-transformed rat1), 50 μM
Text: Cells were counted following 3, 7 and 10 days of beginning of treatments with drugs. For counting, cells were detached from plates with trypsin/EDTA, and collected by a low speed spin in the presence of DMEM/10% FCS. The pelleted cells were resuspended in a small volume of DMEM/10% FCS and counted under the microscope. Viability of cells was estimated by staining with (3-(4,5-dimethylthiosol-2-yl)-2,5-diphenyltetrazolium bromide (MTT) and microscopic examination of the stained and unstained cells, or spectrophotometric estimation (OD490, 590) of the total stain in each well. Non viable cells were estimated by the trypan blue exclusion method.
In order to determine the long term effects of both FTA and FTS on cell survival, a colorometric method using MTT, which stains only live cells, was employed (Mosmen, F. J. Immunol. Meth., 65, 55-63 (1983), and tryptan blue exclusion staining in which only dead cells are stained, were employed. Cells were incubated with 50 μM of either FTA or FTS for a period of up to 5 days in culture. This concentration is 10-30 times the Ki values of FTS and FTA as calculated above. As control served cells incubated in 0.1% DMSO with no drug.

[6] = test system: ras proteins; assay: Methylation of immunoprecipitated ras proteins in intact ras-transformed rat1 cells; type: cell-based, rat; settings: 100 μM, FIG. 4
Text: HEC1A, rail, ras-transformed rail and B16F10 melanoma cells were also used for metabolic labelling of endogenous proteins with 100-300 μCi/ml [methyl-^3H]methionine which was also indicative of PPMTase activity. Metabolic labelling procedures were as detailed elsewhere (Hakiai et al., supra. (1991); Lenner et al., supra. (1992)), and immunoprecipitation of ras with Y13-159 Ab were as detailed by Clarke et al. (Proc. Natl. Acad. Sci. USA, 85, 4643-4647 (1988)).
While the above Table II determines the PPMTase activity by assaying the methylation of a synthetic substrate, FIG. 3 determines this activity by methylation of various endogenous ras-like prenylated GTP-binding proteins present in intact HEC1A, ras-transformed rat1 and melanoma cells, with and without 100 μM of FTA or FTS. […] Use of [α-P^32]

[7] = in vivo; settings: Bulb-C, mouse, in vivo, ip
Protocol: (§4) Seven groups of five mice were used. The mice received a single i.p. dose of FTS in DMSO or the solvent only. Doses used in this experiment ranged from 0.5 mg/kg to 268 mg/kg.

[8] = test system: Bulb-C mice; assay: in vivo
Protocol: as §4

[9] = test system: V-raf transformed 3T3 cells; assay: Growth of V-raf transformed cells; type: cell-based; settings: 25 μM
Text: as §1, §2, §3

[10] = test system: HEC1A cells; assay: Transformed phenotype (multi-layered clumps) of HEC1A cells; type: cell-based, human
Text: HEC1A cells also grow in multi-layered clumps (FIG. 10A).

[11] = test system: SV-40 T-antigen transformed CHO cells; assay: Growth of T-antigen transformed cells; type: cell-based; settings: 25 μM
Text: as §1, §2, §3

In the case of `CC(C)=CCC/C(C)=C/CC/C(C)=C/CSc1ccccc1C(=O)O` [FTS, (3,7,11-trimethyl-dodeca-2,6,10-trienyl)-2-thiobenzoic acid], the “toxicity to C57 mice” value [1] was “not toxic”, the “effect on growth of Erb-B2-transformed cells” value [2] was “sufficient to inhibit growth” and the “Number of cells (% of control)” value ([2]; Brb-B2 transformed 3T3, day 5) was 36 % of control. The “deaths out of the 18 drug treated animals” value [3] was “one”, the “effect on transformed phenotype” value ([4]; 5 μM, FIG. 9E) was “reversed the transformed phenotype” and the “effect on transformed phenotype” value ([4]; 10 μM, FIG. 9F) was “reversed the transformed phenotype”. For the same compound, the “cells stained with trypan blue (dead)” value [5] was “less than 5%”, the “inhibition of methylation of ras proteins” value [6] was “inhibits” and the LD50 at 3 weeks [7] was over 100 mg/kg. For the same compound, the “Number of live mice (3 weeks following injection)” value (shortened to “Number of live mice”) ([8]; 0.5 mg/kg single i.p.) was 5/5, the “Number of live mice” value ([8]; 5.0 mg/kg single i.p.) was 5/5 and the “Number of live mice” value ([8]; 10.0 mg/kg single i.p.) was 5/5. For the same compound, the survival ([8]; 50 mg/kg or lower single i.p.) was “all mice survived”, the “Number of live mice” value ([8]; 50.0 mg/kg single i.p.) was 5/5 and the “mice out of 5 died” value ([8]; 134 mg/kg single i.p.) was 2. The “Number of live mice” value ([8]; 134.0 mg/kg single i.p.) was 3/5, the “Number of live mice” value ([8]; 268.0 mg/kg single i.p.) was 0/5 and the mortality ([8]; highest dose (268 mg/kg) single i.p.) was “all mice died”. For the same compound, the “effect on growth of V-raf transformed cells” value [9] was “no effects”, the “Number of cells (% of control)” value ([9]; Y-ref transformed 3T2, day 5) was 93 ± 8 % of control and the “effect on multi-layered clumps formation” value ([10]; 10 μM, FIG. 10B) was “significant reversal of the multi-layered clumps formation”. The “effect on multi-layered clumps formation” value ([10]; 50 μM, FIG. 10C) was “significant reversal of the multi-layered clumps formation”, the “effect on growth of T-antigen-transformed cells” value [11] was “no effects” and the “Number of cells (% of control)” value ([11]; Y-antigen transformed CHO, day 5) was 99 ± 9 % of control.
